Results published in ChEMBL document CHEMBL1132254, “Pharmacophore development for corticotropin-releasing hormone: new insights into inhibitor activity” (J Med Chem, 1999).

Target: T1, Corticotropin-releasing factor receptor 1 (Homo sapiens, UniProt P34998)
T1 sequence (P34998 whole entry): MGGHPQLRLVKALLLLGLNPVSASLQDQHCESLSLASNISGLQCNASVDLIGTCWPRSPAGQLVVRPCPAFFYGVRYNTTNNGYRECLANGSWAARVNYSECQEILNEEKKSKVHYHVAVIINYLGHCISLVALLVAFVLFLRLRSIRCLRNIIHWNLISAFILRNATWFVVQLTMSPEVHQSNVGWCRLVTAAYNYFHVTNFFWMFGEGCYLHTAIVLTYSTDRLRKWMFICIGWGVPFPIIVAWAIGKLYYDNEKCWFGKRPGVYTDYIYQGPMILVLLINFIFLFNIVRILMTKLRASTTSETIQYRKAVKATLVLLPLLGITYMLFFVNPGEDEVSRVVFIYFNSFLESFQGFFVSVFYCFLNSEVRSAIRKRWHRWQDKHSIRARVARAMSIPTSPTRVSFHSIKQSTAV
Experiment: Inhibition of [125I]CRH binding to human Corticotropin releasing factor receptor 1.

Ki [µM] | SMILES
8 | CCCN(CC1CC1)c1nc(C)nc(Nc2c(OC)cc(OC)cc2OC)n1
0.253 | CCCN(CC1CC1)c1cc(Nc2c(Cl)cc(Cl)cc2Cl)nc(C)n1
